Results from the CheMixHub viscosity set.
± gives the uncertainty stated by the source.

Assay: xn = mol fraction of the nth substance listed

CCOC(C)=O + CC(C)O
viscosity [mPa·s], 101.3 kPa
Details	x1 = 0.1003	x1 = 0.2045	x1 = 0.3082	x1 = 0.4005	x1 = 0.4994	x1 = 0.5952	x1 = 0.7049	x1 = 0.7916	x1 = 0.9011
298.15 K	1.326 ± 0.012	0.9655 ± 0.0086	0.767 ± 0.0068	0.6606 ± 0.0059	0.5797 ± 0.0053	0.5283 ± 0.0049	0.4812 ± 0.0045	0.466 ± 0.0044	0.4473 ± 0.0042
303.15 K	1.177 ± 0.01	0.8717 ± 0.0076	0.701 ± 0.0062	0.6122 ± 0.0055	0.5391 ± 0.005	0.4939 ± 0.0046	0.4525 ± 0.0043	0.4389 ± 0.0042	0.4233 ± 0.004
308.15 K	1.044 ± 0.009	0.7861 ± 0.0069	0.6407 ± 0.0058	0.5644 ± 0.0052	0.5011 ± 0.0047	0.4617 ± 0.0044	0.4257 ± 0.0041	0.4153 ± 0.004	0.4006 ± 0.0039
313.15 K	0.9286 ± 0.0081	0.7126 ± 0.0063	0.5876 ± 0.0054	0.5224 ± 0.0048	0.4673 ± 0.0044	0.4332 ± 0.0041	0.4012 ± 0.0039	0.3911 ± 0.0038	0.3793 ± 0.0037
318.15 K	0.8325 ± 0.0073	0.6477 ± 0.0059	0.5427 ± 0.005	0.4856 ± 0.0046	0.4365 ± 0.0042	0.4066 ± 0.004	0.3798 ± 0.0037	0.3711 ± 0.0037	0.3605 ± 0.0036
323.15 K	0.7498 ± 0.0066	0.5901 ± 0.0053	0.501 ± 0.0047	0.4503 ± 0.0043	0.4088 ± 0.004	0.3831 ± 0.0038	0.3586 ± 0.0036	0.3513 ± 0.0035	0.343 ± 0.0035

CCOc1ccccc1 + C1CCOC1
viscosity [mPa·s], 101.33 kPa
Details	x1 = 0.031	x1 = 0.072	x1 = 0.117	x1 = 0.197	x1 = 0.246	x1 = 0.326	x1 = 0.492	x1 = 0.695	x1 = 0.899
298 K	0.475 ± 0.011	0.493 ± 0.011	0.515 ± 0.012	0.555 ± 0.013	0.581 ± 0.013	0.627 ± 0.014	0.736 ± 0.016	0.891 ± 0.02	1.067 ± 0.023
303 K	0.451 ± 0.011	0.468 ± 0.011	0.487 ± 0.011	0.524 ± 0.012	0.547 ± 0.012	0.587 ± 0.013	0.684 ± 0.015	0.824 ± 0.018	0.985 ± 0.022
308 K	0.431 ± 0.01	0.447 ± 0.01	0.464 ± 0.011	0.496 ± 0.011	0.518 ± 0.012	0.554 ± 0.013	0.642 ± 0.014	0.766 ± 0.017	0.908 ± 0.02

CCOC(C)=O + CC#N
303.15 K, 101.33 kPa
Details	viscosity [mPa·s]
x2 = 0.0931	0.3988 ± 0.0035
x2 = 0.1928	0.3934 ± 0.0035
x2 = 0.298	0.3881 ± 0.0035
x2 = 0.3925	0.3819 ± 0.0035
x2 = 0.4985	0.3753 ± 0.0034
x2 = 0.5974	0.3676 ± 0.0034
x2 = 0.6982	0.3591 ± 0.0034
x2 = 0.8001	0.3486 ± 0.0033
x2 = 0.8988	0.3402 ± 0.0033

O=C([O-])CC(O)(CC(=O)O)C(=O)O.[K+] + O
viscosity [mPa·s], 101 kPa
Details	293.15 K	298.15 K	303.15 K	308.15 K
x1 = 0.0032	1.074 ± 0.014	0.954 ± 0.012	0.853 ± 0.011	0.766 ± 0.01
x1 = 0.0089	1.237 ± 0.016	1.089 ± 0.014	0.97 ± 0.013	0.876 ± 0.011
x1 = 0.0177	1.419 ± 0.018	1.253 ± 0.016	1.117 ± 0.014	1.002 ± 0.013

COC(=O)CC(C)=O + CCOC(C)=O
viscosity [mPa·s], 101.33 kPa
Details	x1 = 0.0001	x1 = 0.1006	x1 = 0.1979	x1 = 0.2962	x1 = 0.3988	x1 = 0.4978	x1 = 0.5934	x1 = 0.6964	x1 = 0.7983	x1 = 0.9006
298.15 K	0.433 ± 0.007	0.488 ± 0.007	0.551 ± 0.008	0.624 ± 0.009	0.711 ± 0.01	0.81 ± 0.011	0.916 ± 0.012	1.051 ± 0.014	1.195 ± 0.016	1.376 ± 0.018
303.15 K	–	0.462 ± 0.007	0.519 ± 0.008	0.587 ± 0.008	0.666 ± 0.009	0.755 ± 0.01	0.849 ± 0.012	0.97 ± 0.013	1.099 ± 0.014	1.258 ± 0.016
308.15 K	–	0.438 ± 0.007	0.491 ± 0.007	0.553 ± 0.008	0.629 ± 0.009	0.706 ± 0.01	0.792 ± 0.011	0.9 ± 0.012	1.015 ± 0.013	1.155 ± 0.015

CCCCCCCCn1cc[n+](C)c1.[Cl-] + CCO
Details	viscosity [mPa·s]
298.15 K, 101 kPa, x2 = 0.1305	5426 ± 2200

CCOC(C)=O + CCCCCCC
296 K, 101.3 kPa
Details	viscosity [mPa·s]
x1 = 0.0713	0.391 ± 0.007
x1 = 0.1748	0.385 ± 0.007
x1 = 0.2448	0.382 ± 0.007
x1 = 0.3468	0.382 ± 0.007
x1 = 0.4832	0.383 ± 0.007
x1 = 0.4946	0.381 ± 0.007
x1 = 0.5009	0.382 ± 0.007
x1 = 0.5867	0.387 ± 0.007
x1 = 0.6508	0.392 ± 0.007
x1 = 0.7653	0.403 ± 0.007
x1 = 0.8485	0.413 ± 0.008
x1 = 0.8885	0.42 ± 0.008

CCOc1ccccc1 + CN(C)C=O
viscosity [mPa·s], 101.33 kPa
Details	x1 = 0.031	x1 = 0.091	x1 = 0.153	x1 = 0.223	x1 = 0.304	x1 = 0.463	x1 = 0.556	x1 = 0.642	x1 = 0.8
298 K	0.815 ± 0.017	0.839 ± 0.018	0.862 ± 0.018	0.889 ± 0.019	0.919 ± 0.02	0.978 ± 0.021	1.012 ± 0.022	1.042 ± 0.022	1.097 ± 0.024
303 K	0.769 ± 0.017	0.788 ± 0.017	0.808 ± 0.017	0.831 ± 0.018	0.857 ± 0.018	0.907 ± 0.019	0.936 ± 0.02	0.963 ± 0.021	1.01 ± 0.022
308 K	0.73 ± 0.016	0.747 ± 0.016	0.763 ± 0.016	0.783 ± 0.017	0.804 ± 0.017	0.847 ± 0.018	0.871 ± 0.019	0.893 ± 0.019	0.933 ± 0.02

COC(=O)CC(C)=O + CCCCOC(C)=O
viscosity [mPa·s], 101.33 kPa
Details	x1 = 0.1019	x1 = 0.2013	x1 = 0.3015	x1 = 0.4035	x1 = 0.5006	x1 = 0.6004	x1 = 0.7005	x1 = 0.8087	x1 = 0.8989
298.15 K	0.719 ± 0.01	0.768 ± 0.011	0.826 ± 0.011	0.895 ± 0.012	0.969 ± 0.013	1.055 ± 0.014	1.163 ± 0.015	1.289 ± 0.017	1.407 ± 0.018
303.15 K	0.672 ± 0.009	0.716 ± 0.01	0.768 ± 0.011	0.83 ± 0.011	0.896 ± 0.012	0.973 ± 0.013	1.068 ± 0.014	1.181 ± 0.015	1.284 ± 0.017
308.15 K	0.629 ± 0.009	0.669 ± 0.009	0.717 ± 0.01	0.774 ± 0.011	0.832 ± 0.011	0.901 ± 0.012	0.987 ± 0.013	1.085 ± 0.014	1.179 ± 0.015

CCCCCCC(=O)O + c1ccccc1
298.15 K, 101 kPa
Details	viscosity [mPa·s]
x1 = 0.03	0.631 ± 0.017
x1 = 0.063	0.666 ± 0.018
x1 = 0.096	0.705 ± 0.019
x1 = 0.13	0.752 ± 0.02
x1 = 0.29	0.99 ± 0.026
x1 = 0.38	1.168 ± 0.031
x1 = 0.47	1.49 ± 0.039
x1 = 0.71	2.3 ± 0.06

COC(=O)CC(C)=O + COC(C)=O
viscosity [mPa·s], 101.33 kPa
Details	x1 = 0.0996	x1 = 0.1998	x1 = 0.3009	x1 = 0.397	x1 = 0.4973	x1 = 0.5975	x1 = 0.6969	x1 = 0.7993	x1 = 0.9006
298.15 K	0.448 ± 0.013	0.52 ± 0.015	0.596 ± 0.016	0.688 ± 0.018	0.798 ± 0.021	0.915 ± 0.023	1.044 ± 0.026	1.202 ± 0.03	1.373 ± 0.033
303.15 K	0.424 ± 0.012	0.489 ± 0.014	0.564 ± 0.016	0.643 ± 0.017	0.744 ± 0.02	0.843 ± 0.022	0.963 ± 0.024	1.104 ± 0.027	1.257 ± 0.031
308.15 K	0.403 ± 0.012	0.463 ± 0.013	0.533 ± 0.015	0.603 ± 0.016	0.696 ± 0.018	0.786 ± 0.02	0.913 ± 0.023	1.024 ± 0.026	1.155 ± 0.029

CCOC(C)=O + CN1CCCC1=O
viscosity [mPa·s], 101 kPa
Details	x2 = 0.1022	x2 = 0.2038	x2 = 0.305	x2 = 0.4057	x2 = 0.506	x2 = 0.6057	x2 = 0.705	x2 = 0.8038	x2 = 0.9021
303.15 K	0.556 ± 0.012	0.725 ± 0.015	0.879 ± 0.018	1.023 ± 0.021	1.154 ± 0.024	1.271 ± 0.026	1.369 ± 0.028	1.449 ± 0.03	1.511 ± 0.031
308.15 K	0.523 ± 0.011	0.669 ± 0.014	0.804 ± 0.017	0.928 ± 0.019	1.042 ± 0.022	1.147 ± 0.024	1.235 ± 0.026	1.307 ± 0.027	1.365 ± 0.028
313.15 K	0.492 ± 0.01	0.628 ± 0.013	0.753 ± 0.016	0.869 ± 0.018	0.975 ± 0.02	1.07 ± 0.022	1.153 ± 0.024	1.221 ± 0.025	1.274 ± 0.026
318.15 K	0.462 ± 0.01	0.582 ± 0.012	0.695 ± 0.015	0.798 ± 0.017	0.893 ± 0.019	0.976 ± 0.02	1.051 ± 0.022	1.114 ± 0.023	1.165 ± 0.024

COC(=O)CC(C)=O + CO
viscosity [mPa·s], 101.3 kPa
Details	x1 = 0.1017	x1 = 0.1887	x1 = 0.3013	x1 = 0.4048	x1 = 0.5038	x1 = 0.6056	x1 = 0.7015	x1 = 0.8024	x1 = 0.8994
298.15 K	0.599 ± 0.016	0.662 ± 0.018	0.757 ± 0.02	0.858 ± 0.022	0.954 ± 0.024	1.064 ± 0.027	1.163 ± 0.029	1.288 ± 0.032	1.413 ± 0.035
303.15 K	0.563 ± 0.016	0.618 ± 0.017	0.704 ± 0.019	0.793 ± 0.021	0.879 ± 0.023	0.978 ± 0.025	1.066 ± 0.027	1.176 ± 0.029	1.288 ± 0.032
308.15 K	0.525 ± 0.015	0.578 ± 0.016	0.657 ± 0.018	0.737 ± 0.02	0.815 ± 0.021	0.902 ± 0.023	0.984 ± 0.025	1.082 ± 0.027	1.18 ± 0.029
